Values quoted from earlier work as cited in patent publication US20260115111A1, “METHOD FOR IMPROVING THE TACTILE SENSATION OF DYED KERATINOUS MATERIAL, ESPECIALLY HUMAN HAIR” (Henkel AG & Co. KGaA, priority 2019, published 2026).

Details: 25° C.

solubility in water | SMILES
highly soluble | O=C([O-])C1=NN(c2ccc(S(=O)(=O)[O-])cc2)C(=O)C1N=Nc1ccc(S(=O)(=O)[O-])cc1.[Na+].[Na+].[Na+] (centres unmarked) [Acid Yellow 23, trisodium salt of 4,5-dihydro-5-oxo-1-(4-sulfophenyl)-4-((4-sulfophenyl)azo)-1H-pyrazole-3-carboxylic acid]
2.5 g/L | Nc1cc(S(=O)(=O)[O-])cc2cc(S(=O)(=O)[O-])c(N=Nc3ccccc3)c(O)c12.[Na+].[Na+] [Acid Red 33, diantrium salt of 5-amino-4-hydroxy-3-(phenylazo)-naphthalene-2,7-disulphonate]

Further lines, the molecule ahead of its results:

SMILES | solubility in water
CCN(Cc1cccc(S(=O)(=O)[O-])c1)c1ccc(C(=C2C=CC(=[N+](CC)Cc3cccc(S(=O)(=O)[O-])c3)C=C2)c2ccccc2S(=O)(=O)[O-])cc1.[Na+].[Na+] [Acid Blue 9] | more than 20 wt. %
O=S(=O)([O-])c1ccc(N=Nc2c(O)ccc3ccccc23)cc1.[Na+] [Acid Orange 7, sodium salt of 4-[(2-hydroxy-1-naphthyl)azo]benzene sulphonate] | more than 7 g/L
O=C([O-])c1c(Cl)c(Cl)c(Cl)c(Cl)c1-c1c2c(Br)cc(=O)c(Br)c-2oc2c(Br)c(O)cc(Br)c12.O=C([O-])c1c(Cl)c(Cl)c(Cl)c(Cl)c1-c1c2c(Br)cc(=O)c(Br)c-2oc2c(Br)c(O)cc(Br)c12.[Na+].[Na+] [Acid Red 92, disodium salt of 3,4,5,6-tetrachloro-2-(1,4,5,8-tetrabromo-6-hydroxy-3-oxoxanthen-9-yl)benzoic acid] | greater than 10 g/L
